Measured values from patent US8637310B2, “Use of a rock inhibitor to sustain primary human keratinocytes in a proliferative state” (The United States of America, as represented by the …, priority 2008, dated 2014).

Experiments:
[1] = test system: human embryonic stem cells; details: cited from earlier work
HPV16 = HPV16 genome copy number in W12 cells; assay type: cell-based, human papillomavirus; details: 10 μM Y-27632, FIG. 8
Description: The 9E and W12 (20863 clone) cell lines were cultured in F-media on irradiated J2 feeder cells. For the Y-27632 experiments they were cultured in F-medium with or without 10 μM Y-27632 and continually passed for the times indicated.
(§1) Cloned viral genomes were cleaved with restriction enzymes to separate viral and vector sequences. The genomes were religated at a concentration of 5 μg/ml to favor intramolecular circularization. Prior to electroporation, J2 feeder cells were removed from the keratinocytes by versene treatment and the HFKs were collected by trypsinization. HFKs (1×10^6) were electroporated with 2 μg of re-circularized viral genomic DNA using the Amaxa Nucleofector II electroporator and the Human Keratinocyte Nucleofector Kit. The Amaxa program optimized for cell survival was used according to the manufacturer's specifications. Cells were removed from the cuvettes immediately following electroporation, and seeded onto 10 cm plates containing irradiated feeder cells and F-medium, in the presence or absence of 10 μM Y-27632, as indicated. At various times post-transfection, low molecular weight DNA was isolated by a modified Hirt extraction procedure (Ustav et al., EMBO J. 10:449-457, 1991). For Southern blot analysis, the isolated DNA was linearized with EcoRI or BamHI, depending on cloning site for each viral genome, and DpnI, to digest any unreplicated input DNA. […]

airway epithelial cells = details: Moore et al. 2004; cited from earlier work
keratinocytes = assay: Organotypic raft culture (differentiation, stratification); assay type: cell-based, human
Description: Organotypic cultures were generated as described previously with modifications. (Banerjee et al., Methods Mol. Med. 119: 187-202, 2005). Briefly, 1×10^5 keratinocytes were seeded onto a rat tail type 1 collagen dermal equivalent containing 1−2×10^6 J2 3T3 feeder cells. The rafts were lifted onto stainless steel grids and were fed by diffusion from below with raft medium [3:1 (v/v) DMEM-F-12 (Ham), 10% FBS, 0.4 μg/ml hydrocortisone, 0.1 nM cholera toxin, and 5 μg/ml transferring]. Raft cultures were allowed to stratify and differentiate for 11-17 days. The collagen-epithelial rafts were fixed in formalin for 4 hours, paraffin embedded, sectioned and stained with hematoxylin and eosin (H&E) or by immunofluorescence as described in Pei et al. (Methods Mol. Med. 119: 49-59, 2005). Monoclonal antibody against anti-keratin 14 (K14) (Ab-1) was from Thermo Fisher Scientific, Fremont, Calif. Goat polyclonal antiserum against Filaggrin (N-20) and rabbit polyclonal antiserum against involucrin (H-120) were from Santa Cruz Biotechnology.

CIN612 9E cells = assay: Growth of CIN1-derived cell line CIN612 9E; assay type: cell-based, human; details: 10 μM Y-27632; 44 days; FIG. 7
Description: (§2) The 9E and […] (20863 clone) cell lines were cultured in F-media on irradiated J2 feeder cells. For the Y-27632 experiments they were cultured in F-medium with or without 10 μM Y-27632 and continually passed for the times indicated.

W12 cells (20863 clone) = assay: Growth of CIN1-derived cell line W12; assay type: cell-based, human; details: 10 μM Y-27632; 44 days; FIG. 7
Description: as §2

HPV6 = assay: HPV DNA replication assay (Southern blot) in transfected primary keratinocytes, HPV6; assay type: cell-based, human papillomavirus; details: 10 μM Y-27632, FIG. 6
Description: as §1, with “DNA. DNA fragments were separated by agarose gel electrophoresis followed by Southern blot hybridization.” for “DNA.”

HPV31 = assay: HPV DNA replication assay (Southern blot) in transfected primary keratinocytes, HPV31; assay type: cell-based, human papillomavirus; details: 10 μM Y-27632; two and five days post-electroporation; FIG. 5
Description: as §1, with “DNA. DNA fragments were separated by agarose gel electrophoresis followed by Southern blot hybridization.” for “DNA.”

p16^INK4a = assay: Immunodetection of p16INK4a; assay type: cell-based, human
Description: Proteins were extracted in 2% sodium dodecyl sulfate (SDS), 50 mM Tris-HCl (pH 6.8), 10% glycerol supplemented with inhibitors Complete and PhosphoSTOP (Roche, Indianapolis, Ind.). Protein samples were resolved on NuPage gels, electrotransferred to Immobilon-P membrane (Millipore, Billerica, Mass.), and probed with the relevant antibodies before detection by chemiluminescence. Monoclonal antibody against p53 (DO-1) was obtained from Santa Cruz Biotechnology (Santa Cruz, Calif.). Monoclonal antibody against α-tubulin (B-5-1-2) was obtained from Sigma-Aldrich. Polyclonal antibodies against Myc (N-262), p21 (C-19), and p16 (C-20) were obtained from Santa Cruz Biotechnology.

[2] = test system: foreskin keratinocyte line (strain a); assay: Karyotype analysis of immortalized cells; assay type: cell-based, human; details: HFK strain a, 95 passages in Y-27632
Description: This was conducted by Molecular Diagnostic Services, Inc. San Diego, Calif. Metaphase spreads were prepared and stained to observe chromosomal G bands.
Twenty metaphase spreads of each cell line was analyzed and five complete karyotypes were prepared from each.

telomeres = assay: Telomere length assay (real-time PCR); assay type: cell-based, human
Description: Genomic DNA was extracted from cells and the average telomere length was assessed by a modified method of the real-time PCR-based telomere assay described previously (Cawthon et al., Nucleic Acids Res. 30: e47, 2002; Cawthon, Nucleic Acids Res. 37: e21, 2009). Briefly, the telomere repeat copy number to single gene copy number (T/S) ratio was determined using a Bio-Rad IQ5 thermocycler. Genomic DNA (5 ng) was subjected to PCR reactions and detected with SYBR Green Super Mix (Bio-Rad). The primers for telomere length and HBG1 (a single copy gene) were as follows. Reaction conditions were: 1 cycle, 95° C., 5 minutes; 41 cycles, 95° C., 15 seconds,; 1 cycle, 60° C. for 45 seconds. All reactions were carried out in triplicate and compared to a standard curve of 0, 0.2, 1, 5, 25 and 125 ng genomic DNA (telomere length 10.4 kb) from Roche Telo-kit. The T/S ratio (dCt) for each sample was calculated by normalizing the average HBG Ct value to the average telomere Ct value.

HPV18 = assay: HPV DNA replication assay (Southern blot) in transfected primary keratinocytes, HPV18; assay type: cell-based, human papillomavirus
Description: Cloned viral genomes were cleaved with restriction enzymes to separate viral and vector sequences. The genomes were religated at a concentration of 5 μg/ml to favor intramolecular circularization. Prior to electroporation, J2 feeder cells were removed from the keratinocytes by versene treatment and the HFKs were collected by trypsinization. HFKs (1×10^6) were electroporated with 2 μg of re-circularized viral genomic DNA using the Amaxa Nucleofector II electroporator and the Human Keratinocyte Nucleofector Kit. The Amaxa program optimized for cell survival was used according to the manufacturer's specifications. Cells were removed from the cuvettes immediately following electroporation, and seeded onto 10 cm plates containing irradiated feeder cells and F-medium, in the presence or absence of 10 μM Y-27632, as indicated. At various times post-transfection, low molecular weight DNA was isolated by a modified Hirt extraction procedure (Ustav et al., EMBO J. 10:449-457, 1991). For Southern blot analysis, the isolated DNA was linearized with EcoRI or BamHI, depending on cloning site for each viral genome, and DpnI, to digest any unreplicated input DNA. DNA fragments were separated by agarose gel electrophoresis followed by Southern blot hybridization. A ^32P-labeled probe was synthesized from the isolated viral genomic DNA (purified from the vector sequence) by the random prime method and used in Southern hybridizations.

In the case of `CC(N)[C@H]1CC[C@H](C(=O)Nc2ccncc2)CC1` (single isomer, unassigned; (+)) [Y-27632, (+)-trans-N-(4-Pyridyl)-4-(1-aminoethyl)-cyclohexanecarboxamide], the “survival rate of human embryonic stem cells following cryopreservation” value ([1]; Li et al. 2008) is given as “enhances the survival rate”, the “survival of embryonic stem cells” value ([1]; Watanabe et al. 2007) is given as “greatly increase the survival of embryonic stem cells” and the HPV16 copy number (HPV16) is given as “partially rescued the decline in copy number”. For the same compound, the “effect on airway epithelial cells” value (airway epithelial cells) was “induces membrane ruffling, loss of actin stress fibers and apoptosis”, the differentiation and stratification (keratinocytes; 10 μM Y-27632 added to the organotypic raft culture medium) was “no differentiation or stratification were observed” and the “formation of stratified epithelium” value (keratinocytes; cells cultured in Y-27632 for 18 passages and late pass, raft media without Y-27632) was “could also produce a stratified epithelium in organotypic culture”. The “expression of keratin 14, involucrin and filaggrin” value (keratinocytes; raft tissue from Y-27632-treated cells, immunofluorescence) was “expressed these differentiation markers in the appropriate layer”, the growth rate (CIN612 9E cells) was “no differences in growth rate were observed” and the growth rate (W12 cells (20863 clone)) was “no differences in growth rate were observed”. The “HPV6 viral DNA levels, long-term assay” value (HPV6; after three passes) was “the levels of viral DNA declined”, the “efficiency of HPV6 replication, long-term assay” value (HPV6; up to three passes) was “greatly increased the efficiency of replication and robust levels of viral DNA were present after three passes” and the “efficiency of HPV replication” value (HPV31) was “greatly increased the efficiency of HPV replication up to five days”. The “p16^INK4a levels” value (p16^INK4a; HPV immortalized cells) was “no effect”, the “p16^INK4a mRNA and protein expression” value (p16^INK4a; after long-term culture with Y-27632, FIG. 12A) was “still observed, albeit at a low level” and the “karyotype of immortalized cells” value [2] was “identical to that of the donor cells”. For the same compound, the “relative length of telomeres” value (telomeres; passage 50 to 120) was “became stable”, the “relative length of telomeres” value (telomeres; with passage in Y-27632, FIG. 11B) was “became progressively shorter with passage” and the “efficiency of HPV replication” value (HPV18; 10 μM Y-27632, two and five days post-electroporation, FIG. 5) was “greatly increased the efficiency of HPV replication up to five days”. The “HPV18 replication, long-term assay” value (HPV18; after day 10, FIG. 6) was “greater levels of replication in the absence of Y-27632” and the “HPV18 replication, long-term assay” value (HPV18; at early times, FIGS. 5 and 6) was “greater in the presence of Y-27632”.
